# Values quoted from earlier work, collected in patent US20070298098A1, “Controlled Release Compositions Comprising Levetiracetam” (ELAN PHARMA INTERNATIONAL LIMITED, priority 2005, published 2007).
# “Also recorded” adds a separate entry of the source.
smiles,measurement,setting,value
"CC[C@@H](C(N)=O)N1CCCC1=O (single isomer, unassigned) [Levetiracetam]",plasma half-life,across studies,6 to 8 h
same,linearity of pharmacokinetics,dose range of 500-5000 mg,linear
same,dependence of metabolism on liver cytochrome P450,in vivo,not liver cytochrome P450 dependent
same,dose renally excreted unchanged,in vivo,66%
same,"major metabolic pathway (enzymatic hydrolysis of the acetamide group), share of dose",in vivo,24 % of dose
same,time to steady state,multiple twice-daily dosing,2 days
same,time of peak plasma concentrations,"oral administration, fasted subjects",about an hour
same,decrease of Cmax by food,with food,20%
same,delay of Tmax by food,with food,1.5 h
same,effect of food on extent of bioavailability / absorption,with food,not affected by food; also recorded: Food does not affect the extent of absorption
